Experimental data as given in EP4230622A1, “NERVE DAMAGE PREVENTING AND NERVE PROTECTING COMPOUNDS, PREPARATION METHOD THEREOF, PHARMACEUTICAL COMPOSITION THEREOF, AND THEIR USE” (Genhealth Pharma Co., Ltd., priority 2022, dated 2023).

What was measured:
[1] = test system: male Sprague Dawley rat (SD rat); test: Neurobehavioral evaluation (Bederson classification) after MCAO/R; settings: Bederson grade 0 to 4, 50 mg/kg intraperitoneal before MCAO/R
[2] = test system: male Sprague Dawley rat (SD rat); test: Evaluation of the effect of preventing nerve damage: transient focal MCAO/R model, infarct volume by TTC staining; assay type: in vivo; settings: 50 mg/kg intraperitoneal injection once 10 minutes before, 1 hour ischemia, 24 hours blood reperfusion, sum of seven brain slices, 5 SD rats
Procedure: The specific solvent was made of dimethyl sulfoxide (DMSO), cremophor EL (CrEL) and water, with the relative volume ratio of 10:20:70, respectively. Besides the foresaid experimental groups, only pure solvent used was treated as vehicle group, and a sham group, which was not administrated with any compound or solvent or with nylon monofilament to cause obstruction and ischemia, was also included.
In this test example, transient focal Middle Cerebral Artery Occlusion/ Reperfusion model (MCAO/R model) was adopted to simulate ischemic stroke for evaluating the subsequent nerve damage. Specifically, male Sprague Dawley rat (SD rat) was adopted and anaesthetized with 2% isoflurane, and then the right common carotid artery, external carotid artery and internal carotid artery were distinguished among them from the neck.
Next, a nylon monofilament with length of 22 millimeters (mm), size number of 4/0 and capped with polysiloxane was inserted into the external carotid artery and along with the […] of Willis to induce obstruction and ischemia in the middle cerebral artery. After causing obstruction and ischemia for 1 hour, the nylon monofilament was removed to allow the blood recirculated to the brain, in other words, to undergo blood reperfusion.
After blood reperfusion for 24 hours, the rat was sacrificed and the brain thereof was placed into a cooled 0.95% saline. Then, 1 mm part of the brain tip was excised, and the rest of the brain was cut in coronal section to obtain seven slices of brain tissue with each thickness of 2 mm. Next, those sliced brain tissues were infiltrated with 1% 2,3,5-triphenyltetrazolium chloride (TTC) for 30-minute at room temperature (about 25°C to 27°C). Afterward, the sliced brain tissues were […] with a 4% […] solution, and then MacroPATH Digital Imaging System was used to record the images and the obtained images were analyzed by ImageJ 1.52a to count the infarct volume percent, which could represent the degree of nerve damage. The foresaid infarct volume percent was obtained by adding the values acquired by multiplying the proportion of infarct area of each sliced brain tissue with their thickness, and the proportion of infarct area was calculated by the equation: (B-A)/B×100%; wherein, "A" represented the undamaged area in the damaged cerebral hemisphere on the right side, and "B" represented the total area of the undamaged cerebral hemisphere on the left side.
Here, 10 minutes before processing the foresaid MCAO/R model, the rats were administrated with the test samples of Examples 1 to 15 by intraperitoneal injection for one time. The administration amount was 50 milligrams per kilogram (mg/kg) or 5 ml/kg. The actual applied amount was depended on the weight of the rates. The treatment for the vehicle group was the same as that of the experimental group except only solvent was used.
The results of TTC staining of the seven sliced brain tissues of the groups of Examples 1 to 15, the vehicle group and the sham group were shown in FIG. 2. 5 SD rats were used for each experimental groups of Examples 1 to 15 and the vehicle group, while only 3 SD rats were used for the sham group. Table 2: The total infarct volume percent of Examples 1 to 15, the vehicle group, and the sham group.

SMILES	Grade, Time point of 0.5-hour after blood reperfusion [1]	Grade, Time point of 1.5-hour after blood reperfusion [1]	Grade, Time point of 24-hour after blood reperfusion [1]	Total infarct volume percent (%) [2] [%]	Grade, Time point of 24-hour after blood reperfusion ([1]; 50 mg/kg)
COc1cc(CNC(C)=O)c(OC)c2c1OCO2 [Example 5]	2.40	2.40	2.40	20.2	
COc1cc(C(=O)NCCC(=O)O)c(OC)c2c1OCO2 [Example 10]	2.60	2.40	2.20	21.76	
COc1cc(C(=O)NCCc2ccc(O)c(O)c2)c(OC)c2c1OCO2 [Example 8]	2.40	2.60	2.00	22.39	
COc1cc(C(=O)Nc2c(C)n(C)n(-c3ccccc3)c2=O)c(OC)c2c1OCO2 [Example 13]				32.53	
COc1cc(C(=O)N[C@@H](C)C(=O)O)c(OC)c2c1OCO2 [Example 11]	2.80	2.00		15.93	1.60
CCOC(=O)c1ccc(NC(=O)c2cc(OC)c3c(c2OC)OCO3)cc1 [Example 15]	2.80	2.60	2.00	17.76	
COc1cc(C(=O)Nc2sc(C)cc2C#N)c(OC)c2c1OCO2 [Example 14]				34.77	
COc1cc(C(=O)OCc2ccccc2)c(OC)c2c1OCO2 [Example 12]				35.67	
CCCCc1c(C)c(OC)c2c(c1OC)OCO2 [Example 2]				30.75	
COc1cc(C(=O)Nc2ccc(O)cc2)c(OC)c2c1OCO2 [Example 9]	2.80	2.40		14.52	1.40
COc1cc(C(=O)NCCCC(=O)O)c(OC)c2c1OCO2 [Example 7]	2.60	2.40		15.17	1.60
COc1ccc(C[C@@H](C)NC(=O)c2cc(OC)c3c(c2OC)OCO3)cc1S(N)(=O)=O [Example 6]	2.60	2.40	2.20	19.67	
